Like-named read-outs stand apart in the source and are kept apart here.
How the values were obtained:
[1] = system: Serratia marcescens expressing IMP-1 (CL5741); format: cell-based; settings: with imipenem 1 μg/ml; 95% inhibition of bacterial growth
Summary of the method: (§1)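 Restoration of imipenem susceptibility (1 μg/ml imipenem) was judged by absorbance after 22–24 h at 35° C. Test compound was added to bacteria suspended 1:100 in 1.1× CAMHB from overnight blood-agar cultures.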

[2] = system: Escherichia coli expressing NDM-1 (CLB30005, CLB30016); format: cell-based; settings: with imipenem 1 μg/ml; 95% inhibition of bacterial growth
Summary of the method: as §1

[3] = system: Klebsiella pneumoniae expressing VIM-1 (IHMA599644); format: cell-based; settings: with imipenem 1 μg/ml; 95% inhibition of bacterial growth
Summary of the method: as §1

[4] = system: P. aeruginosa expressing IMP-1, efflux− (MB9799); test: Efflux: concentration of MBL inhibitor which restores susceptibility to imipenem; format: cell-based, Pseudomonas aeruginosa; settings: imipenem at 2 μg/mL, in the presence of a class A, C, D serine β-lactamase inhibitor closely related to relebactam
Excerpt: (§2) The strain background is Pseudomonas aeruginosa PAO1.

[5] = system: P. aeruginosa expressing IMP-1, efflux+ (MB9798); format: cell-based, Pseudomonas aeruginosa; settings: for P. aeruginosa expressing IMP-1, efflux+ (MB9798) MITC95: imipenem at 2 μg/mL, in the presence of a class A, C, D serine β-lactamase inhibitor closely related to relebactam; for Efflux ratio: ratio MITC95 PA_9798/MITC95 PA_9799
Excerpt: as §2

NDM-1 = NDM-1 (Klebsiella pneumoniae, UniProt C7C422); test: biochemical; format: biochemical; settings: CCF2-FA substrate, 2 hours at 25° C; read-out: NDM-1 IC50
Sequence of NDM-1 (C7C422 whole entry, looked up, species assumed): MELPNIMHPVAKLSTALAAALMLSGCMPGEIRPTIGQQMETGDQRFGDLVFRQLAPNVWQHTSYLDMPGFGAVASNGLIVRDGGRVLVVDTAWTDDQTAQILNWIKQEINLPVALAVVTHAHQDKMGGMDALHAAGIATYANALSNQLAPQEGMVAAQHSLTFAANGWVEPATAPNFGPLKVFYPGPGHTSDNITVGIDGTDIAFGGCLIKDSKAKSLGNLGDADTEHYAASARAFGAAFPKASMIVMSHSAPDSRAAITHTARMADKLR
Protocol: (§3) Enzyme Activity: Determination of IC50
(§4) The Class B enzyme activities were measured in the presence of the test inhibitor in a fluorescence assay against a commercially available substrate consisting of a cephalosporin core linking 7-hydroxycoumarin to fluorescein (CCF2-FA). […] In a 384-well microplate, the test inhibitor was incubated with the metallo-β-lactamase enzyme and the substrate for 2 hours at 25° C. […] The IC50 value was determined from semi-logarithmic plots of enzyme inhibition versus inhibitor concentration, with a curve generated using a 4-parameter fit.

IMP-1 = IMP-1 (Serratia marcescens, UniProt P52699); test: biochemical; format: biochemical
Sequence of IMP-1 (P52699 whole entry, looked up, species assumed): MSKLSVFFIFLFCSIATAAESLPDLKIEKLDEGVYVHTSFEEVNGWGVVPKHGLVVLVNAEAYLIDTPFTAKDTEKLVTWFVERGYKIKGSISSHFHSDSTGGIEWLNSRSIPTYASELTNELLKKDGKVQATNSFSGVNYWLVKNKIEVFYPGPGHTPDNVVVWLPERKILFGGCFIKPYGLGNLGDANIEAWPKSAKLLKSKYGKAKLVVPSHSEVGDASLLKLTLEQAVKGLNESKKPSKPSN
Protocol: as §3, §4

VIM-1 = VIM-1 (Pseudomonas aeruginosa (strain ATCC 15692 / DSM 22644 / CIP 104116 / JCM 14847 / LMG 12228 / 1C / PRS 101 / PAO1), UniProt A0A0F7KYQ8); test: biochemical; settings: CCF2-FA substrate, 2 hours at 25° C
Summary of the method: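 Enzyme activity was measured by fluorescence using CCF2-FA, a cephalosporin-linked 7-hydroxycoumarin/fluorescein substrate, with inhibitor, metallo-β-lactamase and substrate incubated together for 2 hours at 25° C. IC50 came from a 4-parameter fit of inhibition versus log inhibitor concentration.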

[6] = CCF2-FA substrate, 2 hours at 25° C, read-out: IMP-1 IC50

Row | Compound | Serratia marcescens expressing IMP-1 (CL5741) MITC95 [1] | Escherichia coli expressing NDM-1 (CLB30016) MITC95 [2] | Klebsiella pneumoniae expressing VIM-1 (IHMA599644) MITC95 [3] | P. aeruginosa expressing IMP-1, efflux− (MB9799) MITC95 [4] | P. aeruginosa expressing IMP-1, efflux+ (MB9798) MITC95 [5] | Efflux ratio [5] | IC50 (NDM-1) | IC50 (IMP-1; [6]) | IC50 (VIM-1) | IC50 (IMP-1)
1 | Nc1n[nH]c2c(-c3ccc(S(=O)(=O)C4CNC4)c(S(N)(=O)=O)c3-c3nn[nH]n3)cccc12 [Example 21, 3-(3-amino-1H-indazol-7-yl)-6-(azetidin-3-ylsulfonyl)-2-(2H-tetrazol-5-yl)benzenesulfonamide] | 3.125 µM | 1.563 µM | 3.125 µM | 1.563 µM | 1.563 µM | 1.00 | 0.15 nM | 0.639 nM | 0.45 nM | –
2 | Cn1c(N)nc2c(-c3ccc(S(=O)(=O)C4CNC4)c(S(N)(=O)=O)c3-c3nn[nH]n3)cccc21 [Example 22, 3-(2-amino-1-methyl-1H-benzo[d]imidazol-4-yl)-6-(azetidin-3-ylsulfonyl)-2-(2H-tetrazol-5-yl)benzenesulfonamide] | 0.7813 µM | 0.3906 µM | 1.563 µM | 0.7813 µM | 1.563 µM | 2.00 | 0.164 nM | 0.432 nM | 0.213 nM | –
3 | Cc1ccc(-c2ccc(S(=O)(=O)CCN)c(S(N)(=O)=O)c2-c2nn[nH]n2)c2nc(N)[nH]c12 [Example 23, 3-(2-amino-7-methyl-1H-benzo[d]imidazol-4-yl)-6-((2-aminoethyl)sulfonyl)-2-(2H-tetrazol-5-yl)benzenesulfonamide] | 0.7813 µM | 0.3906 µM | 0.7813 µM | 0.3906 µM | 0.7813 µM | 2.00 | 0.123 nM | 0.352 nM | 0.0986 nM | –
4 | Nc1ccc(-c2ccc(S(=O)(=O)C3CCNCC3)c(S(N)(=O)=O)c2-c2nn[nH]n2)cn1 [Example 24, 3-(6-aminopyridin-3-yl)-6-(piperidin-4-ylsulfonyl)-2-(2H-tetrazol-5-yl)benzenesulfonamide] | 3.125 µM | 3.125 µM | 3.125 µM | 1.563 µM | 3.125 µM | 2.00 | 0.382 nM | 0.528 nM | 0.218 nM | –
5 | Nc1ccc(-c2ccc(S(=O)(=O)C3CNC3)c(S(N)(=O)=O)c2-c2nn[nH]n2)cn1 [Example 25, 3-(6-aminopyridin-3-yl)-6-(azetidin-3-ylsulfonyl)-2-(2H-tetrazol-5-yl)benzenesulfonamide] | 0.6719 µM | 0.5156 µM | 2.135 µM | 1.058 µM | 2.302 µM | 2.18 | 0.532 nM | 0.862 nM | 0.441 nM | –
6 | Nc1nc2cccc(-c3ccc(S(=O)(=O)C4CNC4)c(S(N)(=O)=O)c3-c3nn[nH]n3)c2s1 [Example 26, 3-(2-aminobenzo[d]thiazol-7-yl)-6-(azetidin-3-ylsulfonyl)-2-(2H-tetrazol-5-yl)benzenesulfonamide] | 3.125 µM | 1.563 µM | 3.125 µM | 1.563 µM | 3.125 µM | 2.00 | 0.0286 nM | 0.66 nM | 0.16 nM | –
7 | Nc1ccc2c(-c3ccc(S(=O)(=O)C4CNC4)c(S(N)(=O)=O)c3-c3nnn[nH]3)ccnc2n1 [Example 27, 3-(7-amino-1,8-naphthyridin-4-yl)-6-(azetidin-3-ylsulfonyl)-2-(1H-tetrazol-5-yl)benzenesulfonamide] | 3.125 µM | 6.25 µM | 3.125 µM | 1.563 µM | 6.25 µM | 4.00 | 0.185 nM | 1.75 nM | 0.33 nM | –
8 | Nc1nc2cccc(-c3ccc(S(=O)(=O)C4CNC4)c(S(N)(=O)=O)c3-c3nn[nH]n3)c2o1 [Example 28, 3-(2-aminobenzo[d]oxazol-7-yl)-6-(azetidin-3-ylsulfonyl)-2-(2H-tetrazol-5-yl)benzenesulfonamide] | 3.125 µM | 1.563 µM | 3.125 µM | 1.563 µM | 6.25 µM | 4.00 | 0.0489 nM | – | 0.173 nM | 1.33 nM
9 | Nc1nc2ccc(-c3ccc(S(=O)(=O)C4CNC4)c(S(N)(=O)=O)c3-c3nn[nH]n3)cc2o1 [Example 29, 3-(2-aminobenzo[d]oxazol-6-yl)-6-(azetidin-3-ylsulfonyl)-2-(2H-tetrazol-5-yl)benzenesulfonamide] | 1.563 µM | 1.563 µM | 3.125 µM | 1.563 µM | 3.125 µM | 2.00 | 0.24 nM | 0.313 nM | 0.328 nM | –
10 | Nc1nc2c(-c3ccc(S(=O)(=O)C4CNC4)c(S(N)(=O)=O)c3-c3nn[nH]n3)cccc2o1 [Example 30, 3-(2-aminobenzo[d]oxazol-4-yl)-6-(azetidin-3-ylsulfonyl)-2-(2H-tetrazol-5-yl)benzenesulfonamide] | 1.563 µM | 0.7813 µM | 3.125 µM | 1.563 µM | 1.563 µM | 1.00 | 0.0846 nM | 0.585 nM | 0.409 nM | –
11 | Nc1nc2cc(-c3ccc(S(=O)(=O)C4CNC4)c(S(N)(=O)=O)c3-c3nn[nH]n3)ccc2o1 [Example 31, 3-(2-aminobenzo[d]oxazol-5-yl)-6-(azetidin-3-ylsulfonyl)-2-(2H-tetrazol-5-yl)benzenesulfonamide] | 1.563 µM | 1.563 µM | 3.125 µM | 1.563 µM | 6.25 µM | 4.00 | 0.337 nM | 1.37 nM | 0.373 nM | –

Source: US10227331B2 (priority 2015, dated 2019)
